Test results as given in ChEMBL document CHEMBL3392963, “Piperazine derivatives: synthesis, inhibition of the Mycobacterium tuberculosis enoyl-acyl carrier protein reductase and SAR studies” (Eur J Med Chem, 2015).
In brackets after ≈: the same amount, converted by molar mass. Activity calls are given as the source filed them. The rule behind the calls is not given here.

Columns and labels:
[1] = target: T1, Enoyl-[acyl-carrier-protein] reductase [NADH] (Mycobacterium tuberculosis, UniProt P9WGR1); assay: Inhibition of Mycobacterium tuberculosis recombinant InhA assessed as NADH oxidation to NAD+ using 2-trans-dodecenoyl-CoA substrate by UV/visible spectrophotometry
T1 sequence (P9WGR1 whole entry): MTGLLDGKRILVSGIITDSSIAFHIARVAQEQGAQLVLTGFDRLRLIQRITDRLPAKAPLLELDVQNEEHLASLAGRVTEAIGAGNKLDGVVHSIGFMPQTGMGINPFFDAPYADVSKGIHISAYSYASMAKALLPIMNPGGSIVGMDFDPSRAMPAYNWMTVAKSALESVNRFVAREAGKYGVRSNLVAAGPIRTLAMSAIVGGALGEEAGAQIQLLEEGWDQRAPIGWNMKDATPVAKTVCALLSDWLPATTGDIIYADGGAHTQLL

[2] = test system: Mycobacterium tuberculosis; assay: Antimycobacterial activity against Mycobacterium tuberculosis H37Rv assessed as inhibition of mycobacterial growth after 7 days by REMA method; settings: 168 h
[3] = target: T2, Enoyl-[acyl-carrier-protein] reductase [NADH] (Mycobacterium tuberculosis) (UniProt P9WGR1)
T2 sequence (whole entry): T1 sequence (P9WGR1 whole entry)
Description: Inhibition of Mycobacterium tuberculosis recombinant InhA assessed as NADH oxidation to NAD+ at 0.2 uM using 2-trans-dodecenoyl-CoA substrate measured up to 30 mins by UV/visible spectrophotometry

[4] = target: T2, Enoyl-[acyl-carrier-protein] reductase [NADH] (Mycobacterium tuberculosis); remark: listed apart in the source
Description: Uncompetitive inhibition of Mycobacterium tuberculosis recombinant InhA assessed as inhibitory dissociation constant for the enzyme-substrate-inhibitor complex by measuring NADH oxidation to NAD+ using fixed 2-trans-dodecenoyl-CoA substrate and varying NADH levels by UV/visible spectrophotometry

[5] = target: T2, Enoyl-[acyl-carrier-protein] reductase [NADH] (Mycobacterium tuberculosis); remark: listed apart in the source
Description: Competitive inhibition of Mycobacterium tuberculosis recombinant InhA assessed as inhibitory dissociation constant for the enzyme-inhibitor complex by measuring NADH oxidation to NAD+ using varying 2-trans-dodecenoyl-CoA substrate and fixed NADH levels by UV/visible spectrophotometry

[6] = target: T2, Enoyl-[acyl-carrier-protein] reductase [NADH] (Mycobacterium tuberculosis); remark: listed apart in the source
Description: Non-competitive inhibition of Mycobacterium tuberculosis recombinant InhA assessed as inhibitory dissociation constant for the enzyme-inhibitor complex by measuring NADH oxidation to NAD+ using varying 2-trans-dodecenoyl-CoA substrate and fixed NADH levels by UV/visible spectrophotometry

[7] = target: T2, Enoyl-[acyl-carrier-protein] reductase [NADH] (Mycobacterium tuberculosis); remark: listed apart in the source
Description: Non-competitive inhibition of Mycobacterium tuberculosis recombinant InhA assessed as inhibitory dissociation constant for the enzyme-substrate-inhibitor complex by measuring NADH oxidation to NAD+ using varying 2-trans-dodecenoyl-CoA substrate and fixed NADH levels by UV/visible spectrophotometry

O=C(c1cccc(F)c1)N1CCN(C2c3ccccc3-c3ccccc32)CC1
IC50 [1]: 0.24 µM
MIC [2]: > 16.1 µM
TDI [3]: inactive
Kii [4]: 0.147 µM
Kis [5]: 0.118 µM

O=C(c1cc(F)ccc1F)N1CCN(C(c2ccccc2)c2ccccc2)CC1
IC50 [1]: > 50 µM

O=C(c1ccc(F)cc1)N1CCN(C(c2ccccc2)c2ccccc2)CC1
IC50 [1]: > 50 µM

c1ccc(CN2CCN(C3c4ccccc4-c4ccccc43)CC2)cc1
IC50 [1]: > 50 µM

O=C(c1ccccc1F)N1CCN(C2c3ccccc3-c3ccccc32)CC1
IC50 [1]: 0.361 µM
MIC [2]: > 16.1 µM
TDI [3]: inactive
Kii [4]: 0.332 µM
Kis [6]: 0.149 µM
Kii [7]: 0.66 µM

O=S(=O)(c1ccccc1)N1CCN(C(c2ccccc2)c2ccccc2)CC1
IC50 [1]: > 50 µM

O=C(/C=C/c1ccccc1)N1CCN(C(c2ccccc2)c2ccccc2)CC1
IC50 [1]: > 50 µM

O=S(=O)(c1ccccc1)N1CCN(C2c3ccccc3-c3ccccc32)CC1
IC50 [1]: 20 µM

Cc1ccc(C(=O)N2CCN(C(c3ccccc3)c3ccccc3)CC2)cc1
IC50 [1]: 7.83 µM

O=C(c1ccc([N+](=O)[O-])cc1)N1CCN(C2c3ccccc3-c3ccccc32)CC1
IC50 [1]: > 50 µM

O=C(c1ccccc1)N1CCN(C2c3ccccc3-c3ccccc32)CC1
IC50 [1]: 0.183 µM
MIC [2]: > 35.2 µM

O=C(c1ccc(Cl)cc1)N1CCN(C(c2ccccc2)c2ccccc2)CC1
IC50 [1]: > 50 µM

Cc1ccccc1S(=O)(=O)N1CCN(C2c3ccccc3-c3ccccc32)CC1
IC50 [1]: > 50 µM

O=C(/C=C/c1ccccc1)N1CCN(C2c3ccccc3-c3ccccc32)CC1
IC50 [1]: > 50 µM

Cc1ccccc1C(=O)N1CCN(C2c3ccccc3-c3ccccc32)CC1
IC50 [1]: 5.99 µM

O=C(c1ccc(F)cc1)N1CCN(C2c3ccccc3-c3ccccc32)CC1
IC50 [1]: 0.397 µM
MIC [2]: 67.8 µM (≈ 25.3 µg/mL)
TDI [3]: inactive
Kii [4]: 0.348 µM
Kis [5]: 0.338 µM

O=C(c1ccc(Cl)cc1)N1CCN(C2c3ccccc3-c3ccccc32)CC1
IC50 [1]: 1.69 µM
TDI [3]: inactive
Kii [4]: 1.12 µM
Kis [6]: 2.77 µM
Kii [7]: 2 µM

O=C(c1ccncc1)N1CCN(C2c3ccccc3-c3ccccc32)CC1
IC50 [1]: 9.77 µM

COc1ccc(C(=O)N2CCN(C(c3ccccc3)c3ccccc3)CC2)cc1
IC50 [1]: > 50 µM

COc1ccc(C(=O)N2CCN(C3c4ccccc4-c4ccccc43)CC2)cc1
IC50 [1]: 2.9 µM
TDI [3]: inactive
Kii [4]: 1.95 µM
Kis [6]: 1.6 µM
Kii [7]: 7.22 µM

Cc1cccc(C(=O)N2CCN(C3c4ccccc4-c4ccccc43)CC2)c1
IC50 [1]: 0.25 µM
MIC [2]: > 16.2 µM
TDI [3]: inactive
Kii [4]: 0.185 µM
Kis [6]: 0.162 µM
Kii [7]: 0.348 µM

Cc1ccc(C(=O)N2CCN(C3c4ccccc4-c4ccccc43)CC2)cc1
IC50 [1]: 0.222 µM
MIC [2]: 67.8 µM (≈ 25 µg/mL)

O=C(c1ccccc1)N1CCN(C(c2ccccc2)c2ccccc2)CC1
IC50 [1]: 16 µM

O=C(c1cc(F)ccc1F)N1CCN(C2c3ccccc3-c3ccccc32)CC1
IC50 [1]: 1.57 µM
MIC [2]: > 15.3 µM
TDI [3]: inactive
Kii [4]: 1.28 µM
Kis [6]: 0.788 µM
Kii [7]: 3.25 µM

O=C(CN1CCN(C2c3ccccc3-c3ccccc32)CC1)Nc1ccccc1
IC50 [1]: > 50 µM
